Like-named read-outs stand apart in the source and are kept apart here.
Assays:
CYP9J5 = settings: read-out: IC50 CYP9J5, inhibition of diethoxyfluorescein metabolism, cited from earlier work
[1] = tested on: P450 panel (CYP6M2, CYP6P3, CYP6P9a, CYP6P2, CYP9J5, CYP6Z3, CYP6Z2); assay: P450 inhibition, whole P450 panel (mean across P450s); assay type: biochemical, Anopheles gambiae and An. funestus; settings: for IC50: Anopheles gambiae and Anopheles funestus, mean of the seven P450s of Table S2, read-out: IC50 Mean across P450s
Excerpt: (§1) Cytochrome P450 inhibition assays using fluorogenic probe substrates have become commonplace in drug discovery screening cascades and are a rapid method of screening for insecticide interactions with mosquito P450s to predict insecticide binding, metabolism, cross-resistance and synergism. In this study, the half maximal inhibitory concentration (IC50), which provides a value for inhibition of each P450 by each pyrethroid (also referred to as ‘binding affinity’), and the percentage depletion, which gives a value for metabolism of each pyrethroid by each P450 (also referred to as vulnerability to metabolic attack), were both included as parameters to establish a P450s structural activity relationship model. This model was used to understand both the chemistry of the pyrethroids and the interaction with mosquito P450s that function as monooxygenases in metabolic resistance, to predict cross-resistance liabilities in vivo. […] A low percentage depletion indicates low metabolism of the pyrethroid, which means that it may be less vulnerable to resistance mediated by P450s.
(§2) In addition, inhibition activity data for these pyrethroids exposed to CYP6Z3 from the An. gambiae Kisumu strain were also generated (Additional file 1).

CYP6Z3 = biological target: T1, CYP6Z3 (Anopheles gambiae, UniProt Q86LT6, H411Y/S209G/W396L); assay: Inhibition screening of pyrethroids, diethoxyfluorescein, CYP6Z3; assay type: biochemical
T1 sequence (Q86LT6 1-492 S209G/W396L/H411Y): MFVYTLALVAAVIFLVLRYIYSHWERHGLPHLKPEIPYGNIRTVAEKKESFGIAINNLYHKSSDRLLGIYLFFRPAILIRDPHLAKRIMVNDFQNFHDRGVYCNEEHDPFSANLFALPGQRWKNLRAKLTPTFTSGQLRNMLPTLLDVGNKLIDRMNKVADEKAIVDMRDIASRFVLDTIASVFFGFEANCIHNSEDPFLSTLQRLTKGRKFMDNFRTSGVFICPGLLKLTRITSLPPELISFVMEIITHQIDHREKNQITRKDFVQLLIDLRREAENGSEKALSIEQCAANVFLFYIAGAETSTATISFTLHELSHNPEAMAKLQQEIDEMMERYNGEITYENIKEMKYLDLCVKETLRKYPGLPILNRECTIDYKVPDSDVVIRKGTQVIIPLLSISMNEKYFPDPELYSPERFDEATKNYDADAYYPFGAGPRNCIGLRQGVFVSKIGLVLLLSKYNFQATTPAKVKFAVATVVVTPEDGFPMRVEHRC
T1 sequence (Q86QH5 1-679 partner): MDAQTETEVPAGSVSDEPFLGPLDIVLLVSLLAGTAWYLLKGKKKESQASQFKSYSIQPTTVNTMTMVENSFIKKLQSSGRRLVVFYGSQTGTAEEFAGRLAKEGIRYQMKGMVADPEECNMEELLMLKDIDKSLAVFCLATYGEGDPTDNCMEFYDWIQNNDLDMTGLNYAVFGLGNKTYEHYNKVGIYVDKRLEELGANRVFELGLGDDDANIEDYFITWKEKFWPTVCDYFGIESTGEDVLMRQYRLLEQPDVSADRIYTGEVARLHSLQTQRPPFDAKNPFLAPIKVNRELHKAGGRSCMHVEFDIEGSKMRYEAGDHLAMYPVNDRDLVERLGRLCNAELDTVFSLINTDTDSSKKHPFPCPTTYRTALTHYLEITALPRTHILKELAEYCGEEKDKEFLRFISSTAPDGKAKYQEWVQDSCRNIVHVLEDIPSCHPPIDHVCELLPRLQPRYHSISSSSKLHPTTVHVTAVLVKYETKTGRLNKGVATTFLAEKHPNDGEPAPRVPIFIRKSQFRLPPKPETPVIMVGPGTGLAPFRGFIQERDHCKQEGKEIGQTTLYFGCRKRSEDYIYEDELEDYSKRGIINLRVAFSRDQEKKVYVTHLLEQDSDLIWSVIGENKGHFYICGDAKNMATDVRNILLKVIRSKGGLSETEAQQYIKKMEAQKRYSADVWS
Excerpt: as §1, §2
1. Preparation of An. gambiae CYP6Z3 and cloning
Total RNA was extracted with Arcturus PicoPure Kit (Applied Biosystems, USA) from ten adult An. gambiae mosquitoes from the Kisumu strain [1]. Complementary DNA was prepared using Superscript III (Invitrogen) with an oligo (dT)20 primer and used as a template for amplifying full -length AgCyp6z3 with KOD DNA polymerase (Merk Chemicals) . The gene-specific primers used in these high -fidelity PCRs (Table S1) were designed according to the reference An. gambiae PEST CYP6Z3 genome sequence (Accession number AY193727) The PCR product was ligated into pGEM T-easy vector (Promega) and sequenced on both strands. Consistent with the high frequency of polymorphism in An. gambiae P450s [2](Martin Nature Ref) there were 36 single nucleotide polymorphism (SNPs) compared with the reference sequence, of which three produced amino acid changes, S209G, W396L, and H411Y. For expression, the ompA leader sequence (ompA) was engineered onto the amino - terminus of the AgCyp6z3 gene to direct the P450 into the E. coli […] during expression as previously described. The ompA-leader was fused to AgCyp6z3 cDNA in frame with AgCyp6z3 initiation codon by fusion PCR using High fidelity Phusion polymerase (Scientific). The ompA AgCyp6z3 fusion was flanked at the 5′ and 3′ ends with NdeI and EcoR1, respectively for ligation into NdeI/EcoRI linearised pB13 (pCWori+).
Table S1. Primers used for amplification of CYP6Z3 and in vitro functional characterisation […]
ompA+2 Forward […]
ompA+2 CYP6Z3 fusion […]
2. Preparation of membranes expressing P450 and AgCPR
To express functional P450, AgCyp6z3 cloned into pB13 plasmid was co-transformed into E. coli JM109 cells with An. gambiae NADPH-cytochrome P450 reductase (AgCPR-pACYC). The P450 and the AgCPR were previously fused with ompA and pelB leader sequences respectively to direct the expressed proteins to the inner bacterial periplasm in order to form functional monooxygenase complex. For P450 production, 200 mL E. coli cultures in Terrific Broth were incubated at 21°C with shaking at 120 RPM for 18–24 h after induction with 1 mM IPTG. Following expression, E. coli membranes containing CYP6Z3 were isolated and P450 and AgCPR content measured as previously described. Samples were stored in aliquots of 100 µL at −80°C. An. gambiae cytochrome b5 was prepared as described previously to supplement enzyme reactions at an 8:1 M ratio, b5: P450 [4].
3. Inhibition screening of pyrethroids.
Inhibition screening of pyrethroid inhibitors and IC50 calculations carried out according Yunta et al. […]

CYP6P9a = settings: Incubation time 2h; mean ± SD; ref [38], [41]; cited from earlier work
[2] = footnote a, ref Yunta et al. 2016[8]
[3] = footnote b, ref Yunta et al. 2019[10]
[4] = recombinant P450s, probe diethoxyfluorescein

Compound	IC50 (CYP9J5; [2])	IC50 [1]	IC50 (CYP6Z3)	IC50 (CYP9J5; [3])	IC50 [1, 4]	% Insecticide depletion CYP6P9a (CYP6P9a)	binding to the P450s panel, rank in words ([1]; among the six pyrethroids)
CC1(C)[C@H](C(=O)O[C@H](C#N)c2cccc(Oc3ccccc3)c2)[C@@H]1C=C(Br)Br [Deltamethrin, deltamethrin]	6.1 µM	5.5 µM	3.4 µM	–	–	–	–
CCOc1ccc(C(C)(C)COCc2cccc(Oc3ccccc3)c2)cc1 [Etofenprox, etofenprox]	–	–	4.8 µM	8 µM	7 µM	98.5 ± 0.2%	–
CC1(C)C(C=C(Cl)Cl)C1C(=O)OCc1cccc(Oc2ccccc2)c1 (centres unmarked) [Permethrin, permethrin]	6.5 µM	–	3.7 µM	–	7.6 µM	87.8 ± 0.7%	–
CC1(C)[C@H](C(=O)O[C@H](C#N)c2cccc(Oc3ccccc3)c2)[C@@H]1/C=C(\Cl)C(F)(F)F (racemic) [λ-Cyhalothrin, λ-cyhalothrin]	–	–	3.3 µM	4.2 µM	7.2 µM	67.1 ± 3.1%	–
Cc1c(COC(=O)[C@@H]2[C@H](/C=C(\Cl)C(F)(F)F)C2(C)C)cccc1-c1ccccc1 (racemic) [Bifenthrin, bifenthrin]	–	–	17 µM	2.5 µM	9.8 µM	53.4 ± 1.6%	lowest binding
